Assays:
[1] = target: T1, obelin (apo-obelin; obelin-v when charged with CTZ-v) (Obelia longissima, UniProt Q27709); assay: charging of apo-obelin, Ca2+ discharge, then fluorescence and structure of discharged protein; assay type: biochemical; settings: O2, Ca2+; charging overnight with twofold molar excess in 5 mM EDTA, 10 mM DTT, 20 mM Tris-HCl pH 7.2, 4 °C
T1 construct: Ca2+-discharged form; two molecules per asymmetric unit
T1 sequence (Q27709 1-195): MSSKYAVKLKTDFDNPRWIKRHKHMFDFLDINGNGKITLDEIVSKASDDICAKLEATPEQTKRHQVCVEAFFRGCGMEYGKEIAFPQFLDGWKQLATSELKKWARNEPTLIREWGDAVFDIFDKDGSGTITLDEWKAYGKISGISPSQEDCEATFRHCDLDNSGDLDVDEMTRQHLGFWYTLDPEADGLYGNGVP

[2] = target: T1, obelin (apo-obelin; obelin-v when charged with CTZ-v); assay: charging of apo-obelin, Ca2+ discharge, then fluorescence of discharged protein; assay type: biochemical; settings: O2, Ca2+; charging overnight with twofold molar excess in 5 mM EDTA, 10 mM DTT, 20 mM Tris-HCl pH 7.2, 4 °C

SMILES	charging of apo-obelin, Ca2+ discharge, then fluorescence and structure of disch [1]	charging of apo-obelin, Ca2+ discharge, then fluorescence of discharged protein [2]
O=c1c(Cc2ccc(O)cc2)nc2c(Cc3ccccc3)[nH]c3c4ccc(O)cc4ccc3n1-2 [CTZ-v]	apo-obelin was incubated overnight with a twofold molar excess of CTZ or CTZ-v	
Oc1ccc(Cc2nc3c(Cc4ccccc4)nc(-c4ccc(O)cc4)cn3c2O)cc1 [CTZ]		apo-obelin was incubated overnight with a twofold molar excess of CTZ or CTZ-v
